Conditions: not given

Question: Which melting point does the source give for CCCCCCCCCCCC(CCCCCCCC)c1ccccc1 (stereo unspecified) here?
Answer: 17.9 °C

Question: For COC(=O)C1(O)c2ccccc2-c2ccc(Cl)cc21 (stereo unspecified), which melting point is on record?
Answer: 139 °C

Question: With O=C1OC(=O)C2=C1CCCC2 as the compound, how does the melting point read?
Answer: 74 °C

Question: Which ready biodegradability does the source give for CCOC(=O)C(C)(C)Oc1ccc(Cl)cc1 here?
Answer: readily biodegradable

Question: With CC(=O)[C@@]1(C)CC[C@H]2[C@@H]3C=C(C)C4=CC(=O)CC[C@]4(C)[C@H]3CC[C@@]21C as the compound, how does the melting point read?
Answer: 144 °C

Question: With C#CCCCCCCCCCCCCCC as the compound, how does the boiling point read?
Answer: 284 °C

Question: What about the melting point of the same compound?
Answer: 15 °C

Question: With CC(=O)OC(OC(C)=O)c1cccc([N+](=O)[O-])c1 as the compound, how does the melting point read?
Answer: 72 °C

Question: Which boiling point does the source give for COC(=O)c1cccc(O)c1 here?
Answer: 281 °C

Question: What about the melting point of the same compound?
Answer: 73 °C

Question: With CCCCCCCCCCCCCCCCCC(=O)OCCOC(=O)CCCCCCCCCCCCCCCCC as the compound, how does the melting point read?
Answer: 79 °C

Question: What about the ready biodegradability of the same compound?
Answer: readily biodegradable

Question: Which results are given for O=[N+]([O-])OC(CO)CO?
Answer: boiling point: 158 °C; melting point: 54 °C

Question: With CCN(CCO)c1ccccc1 as the compound, how does the boiling point read?
Answer: 268 °C

Question: And the melting point?
Answer: 37 °C

Question: Which boiling point does the source give for CC(C)=C(C)C here?
Answer: 73.3 °C

Question: What about the log10 vapour pressure (mmHg) of the same compound?
Answer: 2.1

Question: And the melting point?
Answer: -74.6 °C

Question: Which boiling point does the source give for CC(C)CCOC(=O)C(=O)OCCC(C)C here?
Answer: 268 °C

Question: And the melting point?
Answer: -9 °C

Question: Which log10 vapour pressure (mmHg) does the source give for Clc1ccc(Oc2ccccc2Cl)cc1Cl here?
Answer: -3.85

Question: With NS(=O)(=O)c1cc2c(cc1Cl)NC(Cc1ccc(F)cc1)NS2(=O)=O (stereo unspecified) as the compound, how does the melting point read?
Answer: 239 °C

Question: Which boiling point does the source give for C=C1CCC(C)CC1 here?
Answer: 122 °C

Question: With CC(=O)CCC(C)=O as the compound, how does the boiling point read?
Answer: 194 °C

Question: What about the melting point of the same compound?
Answer: -5.5 °C

Question: Which log10 biodegradation half-life (days) does the source give for c1cc2c3c(c1)ccc1ccc4cccc-2c4c13 here?
Answer: 2.54

Question: With O=C1c2c(O)cccc2C(=O)C2C(O)=CC=CC12 (stereo unspecified) as the compound, how does the melting point read?
Answer: 280 °C

Question: With Cc1cc(C)c(C(C)C)cc1C as the compound, how does the boiling point read?
Answer: 221 °C

Question: And the melting point?
Answer: 21 °C

Question: For O=Cc1ccncc1, which log10 Henry constant (atm·m³/mol) is on record?
Answer: -6.75

Question: What does the source list for CCOC(=O)C(C)Oc1ccc(Oc2nc3ccc(Cl)cc3o2)cc1 (stereo unspecified)?
Answer: log10 Koc (L/kg): 3.98; melting point: 86.2 °C

Question: Which results are given for CCc1cccc(CC)c1N(COC)C(=O)CCl?
Answer: log10 Henry constant (atm·m³/mol): -8.08; log10 Koc (L/kg): 2.28; melting point: 40 °C; ready biodegradability: not readily biodegradable

Question: With Cc1cccc(CBr)c1 as the compound, how does the boiling point read?
Answer: 212 °C

Question: With COc1cc(C(=O)NCc2ccc(OCCN(C)C)cc2)cc(OC)c1OC as the compound, how does the melting point read?
Answer: 189 °C

Question: Which melting point does the source give for CCCOC(=O)c1ccc(N)cc1 here?
Answer: 75 °C

Question: Which melting point does the source give for c1ccc2c(Oc3cccc4ccccc34)cccc2c1 here?
Answer: 110 °C

Question: For CCCCC(CC)C(=O)OCC(COC(=O)C(CC)CCCC)OC(=O)C(CC)CCCC (stereo unspecified), which ready biodegradability is on record?
Answer: readily biodegradable

Question: Which log10 Koa does the source give for Clc1cc2ccccc2c(Cl)c1Cl here?
Answer: 7.66

Question: What about the log10 vapour pressure (mmHg) of the same compound?
Answer: -4.7

Question: For CCN(CC)C(=O)COC(=O)c1ccccc1, which melting point is on record?
Answer: 72.5 °C

Question: With CCOC(=O)CC(SP(=O)(OC)OC)C(=O)OCC (stereo unspecified) as the compound, how does the log10 vapour pressure (mmHg) read?
Answer: -5.01

Question: Which boiling point does the source give for OCc1cccc(Cl)c1 here?
Answer: 237 °C

Question: Which log10 Henry constant (atm·m³/mol) does the source give for Clc1cccc(-c2c(Cl)cc(Cl)cc2Cl)c1 here?
Answer: -3.68

Question: For Fc1ccc(F)c(F)c1F, which boiling point is on record?
Answer: 94.3 °C

Question: What about the log10 vapour pressure (mmHg) of the same compound?
Answer: 1.69

Question: What about the melting point of the same compound?
Answer: -42 °C

Question: Which boiling point does the source give for Cc1cccc(C)c1C(=O)O here?
Answer: 274 °C

Question: And the melting point?
Answer: 116 °C

Question: Which results are given for Cc1cc(N)c2ccccc2n1?
Answer: boiling point: 333 °C; melting point: 169 °C

Question: What does the source list for CC(C)C(C(=O)OC(C#N)c1cccc(Oc2ccccc2)c1)c1ccc(Cl)cc1 (stereo unspecified)?
Answer: log10 Koc (L/kg): 3.73; log10 vapour pressure (mmHg): -8.82; melting point: 52.2 °C

Question: With COc1ccc2c(c1)c(CC(=O)OCC(=O)O)c(C)n2C(=O)c1ccc(Cl)cc1 as the compound, how does the melting point read?
Answer: 152 °C

Question: Which melting point does the source give for NC(=O)c1c(F)cccc1F here?
Answer: 146 °C

Question: Which results are given for CC1=CC(C)(C)Nc2ccccc21?
Answer: boiling point: 260 °C; melting point: 26.5 °C; ready biodegradability: not readily biodegradable

Question: For CC(C)(C)c1cc(O)c(C(C)(C)C)cc1O, which melting point is on record?
Answer: 218 °C

Question: With CCOC(=O)C(Br)C(C)Br (stereo unspecified) as the compound, how does the melting point read?
Answer: 58.5 °C

Question: Which boiling point does the source give for CCN(C)C here?
Answer: 36.5 °C

Question: What about the melting point of the same compound?
Answer: -140 °C

Question: Which melting point does the source give for CCCSc1ccc2[nH]c(NC(=O)OC)nc2c1 here?
Answer: 209 °C

Question: With CN(C)CC/C=C1\c2ccccc2CSc2ccccc21 as the compound, how does the melting point read?
Answer: 56 °C

Same assay, conditions: fish

Question: What does the source list for CCc1cccc(CC)c1N(COC)C(=O)CCl?
Answer: log10 BCF: 1.12; log10 biotransformation half-life (days): -1.1

Question: For CCOC(=O)CC(SP(=O)(OC)OC)C(=O)OCC (stereo unspecified), which log10 BCF is on record?
Answer: 0.05

Question: And the log10 biotransformation half-life (days)?
Answer: -1.04

Question: For OCc1cccc(Cl)c1, which log10 BCF is on record?
Answer: 1.29

Question: For CC(C)C(C(=O)OC(C#N)c1cccc(Oc2ccccc2)c1)c1ccc(Cl)cc1 (stereo unspecified), which log10 BCF is on record?
Answer: 2.85

Question: What about the log10 biotransformation half-life (days) of the same compound?
Answer: 0.69
